Assay results: patent US12171224B2, “Choline salt and ammonium-free adjuvants for water conditioning and agricultural formulations” (SPECIALTY OPERATIONS FRANCE, priority 2015, dated 2024)

Key:
Details in all cases: 1000 ppm water, after 21 days
Ivyleaf morning glory = assay: Greenhouse weed control study, ivyleaf morning glory
Experimental: (§1) A greenhouse study was conducted to evaluate efficacy benefits of several candidates.
(§2) Procedure: Product application was made using a DeVries spray booth calibrated to 10 gpa, 40 psi with flat-fan AIXR11002 nozzle. Test plants were placed in a certain zone (Zone 3) of research greenhouse on a wire-mesh raised bench and arranged in a randomized complete block design. […] Environmental conditions averaged high temperature 87° F. to low temperature of 75° F. during trial dates. Average humidity levels ranged from 40% to 90%. Test plants received natural lighting for duration of trial. Test plants were soil watered every twenty-four (24) hours as needed.
(§3) Weeds were evaluated for percent control at 3, 7, 14, and 21-days following application.
(§4) Rating scale used; 0 indicating no control/injury up to 100 indicating complete control of weed species as compared to the untreated check.

Weeds = assay: Greenhouse weed control study, average over the four weeds
Experimental: as §1, §2, §3, §4

Velvet leaf = assay: Greenhouse weed control study, velvetleaf
Experimental: as §1, §2, §3, §4

Common barnyardgrass = assay: Greenhouse weed control study, common barnyardgrass
Experimental: as §1, §2, §3, §4

Yellow foxtail = assay: Greenhouse weed control study, yellow foxtail
Experimental: as §1, §2, §3, §4

[1] = (55% soln) 0.18%, use rate 0.18 % w/w
[2] = (55% soln) 0.45%, use rate 0.45 % w/w
[3] = (80% liquid) 1%, use rate 1 % w/w

Compound: O=C(O)CC(O)(CC(=O)O)C(=O)O [Citric acid]
- Ivyleaf morning glory percent control (Ivyleaf morning glory; [1]): 16.7%
- Ivyleaf morning glory percent control (Ivyleaf morning glory; [2]): 20%
- Average percent control (Weeds; [1]): 37.925%
- Average percent control (Weeds; [2]): 36.25%
- Velvet leaf percent control (Velvet leaf; [1]): 15%
- Velvet leaf percent control (Velvet leaf; [2]): 15%
- Common barnyardgrass percent control (Common barnyardgrass; [1]): 83.3%
- Common barnyardgrass percent control (Common barnyardgrass; [2]): 60%
- Yellow foxtail percent control (Yellow foxtail; [1]): 36.7%
- Yellow foxtail percent control (Yellow foxtail; [2]): 50%

Compound: Choline bicarbonate
- Ivyleaf morning glory percent control (Ivyleaf morning glory; [3]): 10%
- Average percent control (Weeds; [3]): 34.575%
- Velvet leaf percent control (Velvet leaf; [3]): 15%
- Common barnyardgrass percent control (Common barnyardgrass; [3]): 30%
- Yellow foxtail percent control (Yellow foxtail; [3]): 83.3%

Compound: N.N.O=S(=O)(O)O [Ammonium Sulfate]
- Ivyleaf morning glory percent control (Ivyleaf morning glory; 1%, use rate 2.5 % w/w): 20%
- Ivyleaf morning glory percent control (Ivyleaf morning glory; 2%, use rate 5 % w/w): 18.3%
- Average percent control (Weeds; 1%, use rate 2.5 % w/w): 39.575%
- Average percent control (Weeds; 2%, use rate 5 % w/w): 41.65%
- Velvet leaf percent control (Velvet leaf; 1%, use rate 2.5 % w/w): 18.3%
- Velvet leaf percent control (Velvet leaf; 2%, use rate 5 % w/w): 18.3%
- Common barnyardgrass percent control (Common barnyardgrass; 1%, use rate 2.5 % w/w): 80%
- Common barnyardgrass percent control (Common barnyardgrass; 2%, use rate 5 % w/w): 90%
- Yellow foxtail percent control (Yellow foxtail; 1%, use rate 2.5 % w/w): 40%
- Yellow foxtail percent control (Yellow foxtail; 2%, use rate 5 % w/w): 40%

Compound: C[N+](C)(C)CCO.O=C([O-])CC(O)(CC(=O)O)C(=O)O [Choline Dihydrogen Citrate]
- Ivyleaf morning glory percent control (Ivyleaf morning glory; 0.4%, use rate 0.4 % w/w): 26.7%
- Average percent control (Weeds; 0.4%, use rate 0.4 % w/w): 42.5%
- Velvet leaf percent control (Velvet leaf; 0.4%, use rate 0.4 % w/w): 20%
- Common barnyardgrass percent control (Common barnyardgrass; 0.4%, use rate 0.4 % w/w): 83.3%
- Yellow foxtail percent control (Yellow foxtail; 0.4%, use rate 0.4 % w/w): 40%
